In assay [1] the test system is HeLa cells. The experiment in a line: Presto blue cell viability assay, HeLa cells. The format is cell-based, Human. The note with it: 24 hour incubation, n = 3. How it is done:
Fig. 3 Cell culture, presto blue assay results for 2a, 2b, 2c, 2d, 2e. The data shown is after 24 hour incubation of drug treated HeLa cells. Top chart illustrates mean and SEM of HeLa cell viability at concentrations 100 to 1 μM with positive control (doxorubicin (N2)). In the top charts, values are normalized to negative control (DMSO) at a value of 1 (cell viability). The bottom charts then show the normalized absorbance percentage to the negative control (percentage cell viability) of log inhibitor concentration (multiplied by 10 to account for 1 μM concentration) IC50 values and R squared values are included in the chart. Error bars indicates standard error of mean from n = 3 experiments.
Compounds 2a–2e were subsequently tested against a HeLa cancer cell line (HeLa, American Type Culture Collection (ATCC) (ATCC® CCL-2™)) and they were all prepared in 100, 30, 10 and 1 μM concentrations so that IC50 values could be calculated to establish whether drugs were cytotoxic to HeLa cells (see ESI ^† S1).
Cell suspension (200μl) containing 5000 healthy HeLa cells was seeded in 96-well plates (BDFalcon, Franklin Lakes, NJ) and allowed to attach and stabilize overnight at 37 °C with 5%
CO2. Aspiration of media and rinsing solution was done through pipetting off liquid. Cell viability was then tested with PrestoBlue assay.The presto blue assay was carried out in light sensitive conditions. 100μl of PrestoBlue solution (10% in medium) was added to each well and the plates were incubated at 37 °C for 1 hour. After incubation time, the change in florescence was measured at 570/600 nm using a Spectra Max fluorescence multi-well plate reader.
Dissociation constants were calculated using the curve-fitting software Graphpad Prism 8.
Incubation was done using Thermofisher Steri-Cycle CO2 Incubators and for plate reading Thermofisher Epoch Microplate Spectrophotometer was used. Centrifugation was done by Thermo Scientific Sorvall ST 40 Centrifuge Series.
Commercially available DMEM (Dulbecco’s Modified Eagle Medium- low glucose), including sodium pyruvate and […], 500 mL, was obtained from Gibco, USA. All procedures carried out under sterile conditions, 94 mL of media was taken and the required volume of supplements (10 % Fetal Bovine Serum (FBS), 2 mM/mL Glutamine, 100 U/mL penicillin and 100 µg/mL streptomycin.) were added.
Cell Line and Cell Culture Conditions
Human cervical cancer cell lines (HeLa) were obtained from the American Type Culture Collection (ATCC) (ATCC® CCL-2™). HeLa cells were cultured in Dulbecco’s Eagle Modified Medium low glucose (DMEM) containing 10 % Fetal Bovine Serum (FBS), 2 mM/mL Glutamine, 100 U/mL penicillin and 100 µg/mL streptomycin.
%viable cells = 1 ‒ Number of blue cells x 100 […]
Cryovials were taken from the liquid nitrogen tank and thawed quickly at 37 °C. After that, the cell suspension was transferred to a 15 mL tube and 5 mL of the medium was added into the cell suspension drop by drop with gentle shaking. Centrifugation was done at 1500rpm for 5 min and then supernatant was discarded. After the pellet was resuspended with medium, they were seeded to T-25 flasks. Subsequent to 12 hours incubation, the media was removed and washed with DPBS (1X) (pH:7.4) containing 10 mM sodium dibasic phosphate, 2.7 mM KCI, 2 mM Potassium phosphate,137 mM NaCI. Fresh media was added to the cell monolayer a […]
Assays were carried out using a 96 well plate. This 96-well plate contains one blank, 3 controls which contains cells including a negative control with media, one vehicle control which is DMSO and medium solutions, and a positive control of Doxorubicin (200µL) and media. Drugs were prepared in 100, 30, 10, 1 µM concentrations to make 8 seeded well plates in total which were done in triplicate. All drugs were prepared in DMSO and then diluted in media to give 5µL of DMSO max in 100µM treatments which is controlled by vehicle with a DMSO volume

The test system of assay [2] is d(TTGGGTT)4. Kind of assay: NMR titration of ligands with G-quadruplex oligonucleotide. It is filed as binding. The note with it: for Difference from 11.55 ppm (ppm) G3NH: 1H NMR chemical shift difference of G-quadruplex peak G3NH on ligand addition; for Difference from 11.22 ppm (ppm) G4NH: 1H NMR chemical shift difference of G-quadruplex peak G4NH on ligand addition; for Difference from 10.86 ppm (ppm) G5NH: 1H NMR chemical shift difference of G-quadruplex peak G5NH on ligand addition; for Difference from 1.58 ppm (ppm) T6CH3: 1H NMR chemical shift difference of G-quadruplex peak T6CH3 on ligand addition; for Difference from 7.23 ppm (ppm) T6H6/8: 1H NMR chemical shift difference of G-quadruplex peak T6H6/8 on ligand addition; for Δδ (ppm): G quadruplex chemical shift difference. On the procedure:
Compounds 2a–2e were evaluated for G-quadruplex interaction using NMR titration studies with d(TTGGGTT)4 with intercalation comparisons made against doxorubicin and nemorubicin (see ESI ^† S1). […] We also see the peaks for T6 (methyl, aromatic and ribose) shifting to a lower field in accord with the up-field shift of the G5 peaks. This change is explained by the formation of a complex between the ligand and the tetrad formed at G5, which pushes the T6 unit away from the guanine π-system. This intercalation framework agreed with ESI/MS carried out which illustrated a 1 : 1 complex.[17]
Maximum line broadening occurs at a ratio of 1 : 1 drug to G-quadruplex and chemical shift difference changing up to 1 : 1 with the bound and unbound peaks being present. […]
This oligonucleotide solvent mix was then micro-pipetted at a volume of 0.6ml into NMR tubes. Stock solutions of drug compounds in DMSO-d6 were used to make up the molar ratios of 0.125:1, 0.25:1, 0.5:1 and 1:1 drug to oligomer.
A non-active drug (TC102) and DMSO on its own were added as controls to validate that the effects on the spectra were from cytotoxic elements of the drug compounds rather than the effects from DMSO or addition of compound, which could change environment, pH or shimming of NMR instrument.
Spectra were acquired at 300 K using a Bruker Avance III 600MHz FT‐NMR. The WATERNOESY parameter set which executes the pulse sequence noesygppr1d (Bruker, size […]
experiments with a pre-saturation delay during relaxation and mixing time (experiment time:
14 min 44 sec). With this pulse sequence, all non-exchangeable protons are detected in the deuterated D2O/H2O buffer solution. T1 relaxation experiments were acquired for d1 calibration with a modified version of the zggpw5 pulse sequence. With a saturation recovery […]
pulse and using water suppression (Bruker, size of fid 65536/11 F2/F1, […]
(experimental time 1 h 4 min 6 sec).
Bruker Topspin 3.5 pl7 was used for assignment of peaks, manual phasing, baseline correction and manual integration. Manual integration was done to ensure bias and slope was correct and that the integrals were all of the same width. Calculation of chemical shift change done through built in top spin distance measurements between peaks.

The subject of assay [3] is d(TTGGGTT)4. Set-up: method as in PMID 26922833. The following applies: G quadruplex chemical shift difference; cited from earlier work.

Structures are written as SMILES. Like-named read-outs stand apart in the source and are kept apart here.

In the case of `C(=N\CCN1CCCCC1)/c1c2ccccc2c(/C=N/CCN2CCCCC2)c2ccccc12` [Compound 2d], inhibition in assay [1] was half-maximal at 23.8 µM (IC50). Also, 24 µM corresponded to half-maximal inhibition in assay [1] (Homo sapiens, HeLa, 24 h) (IC50). In assay [2], the “Difference from 11.55 ppm (ppm) G3NH” value is reported as −0.03 ppm, the “Difference from 11.22 ppm (ppm) G4NH” value was −0.07 ppm, the “Difference from 10.86 ppm (ppm) G5NH” value is given as −0.13 ppm and the “Difference from 1.58 ppm (ppm) T6CH3” value was 0.094 ppm. Moreover, in assay [2], the “Difference from 7.23 ppm (ppm) T6H6/8” value worked out at 0.16 ppm and the “Δδ (ppm)” value amounted to 0.13 ppm.

Regarding `C(=N\Cc1ccc2c(c1)OCO2)/c1c2ccccc2c(/C=N/Cc2ccc3c(c2)OCO3)c2ccccc12` [Compound 2a], half-maximal inhibition in assay [1] (Homo sapiens, HeLa, 24 h) (IC50) required 18.1 µM. In assay [2], the “Difference from 11.55 ppm (ppm) G3NH” value is −0.04 ppm, the “Difference from 11.22 ppm (ppm) G4NH” value is given as −0.08 ppm, the “Difference from 10.86 ppm (ppm) G5NH” value is on record as −0.2 ppm and the “Difference from 1.58 ppm (ppm) T6CH3” value is 0.09 ppm. Moreover, in assay [2], the “Difference from 7.23 ppm (ppm) T6H6/8” value came to 0.17 ppm and the “Δδ (ppm)” value came out at 0.2 ppm.

With `Cc1cnc(/N=C/c2c3ccccc3c(/C=N/c3ncc(C)s3)c3ccccc23)s1` [Compound 2e], inhibition in assay [1] (Homo sapiens, HeLa, 24 h) was half-maximal at 20.5 µM (IC50). Further, in assay [2], the “Difference from 11.55 ppm (ppm) G3NH” value is given as −0.056 ppm, the “Difference from 11.22 ppm (ppm) G4NH” value was −0.11 ppm, the “Difference from 10.86 ppm (ppm) G5NH” value is −0.24 ppm and the “Difference from 1.58 ppm (ppm) T6CH3” value is reported as 0.146 ppm. Moreover, in assay [2], the “Difference from 7.23 ppm (ppm) T6H6/8” value is 0.19 ppm and the “Δδ (ppm)” value worked out at 0.24 ppm.

`COc1cccc2c1C(=O)c1c(O)c3c(c(O)c1C2=O)C[C@@](O)(C(=O)CO)C[C@@H]3O[C@H]1C[C@H](N)[C@H](O)[C@H](C)O1` [Doxorubicin]: the “Δδ (ppm)” value in assay [3] is listed as 0.31 ppm.

In the case of `C(=N\CCc1c[nH]c2ccccc12)/c1c2ccccc2c(/C=N/CCc2c[nH]c3ccccc23)c2ccccc12` [Compound 2c], the half-inhibitory concentration (IC50) (as a rule, the concentration needed to halve the response being measured) in assay [1] is 30.6 µM. In assay [1] (Homo sapiens, HeLa, 24 h), half-maximal inhibition (IC50) required 30.5 µM. Further, in assay [2], the “Difference from 11.55 ppm (ppm) G3NH” value was −0.06 ppm, the “Difference from 11.22 ppm (ppm) G4NH” value is −0.115 ppm, the “Difference from 10.86 ppm (ppm) G5NH” value was −0.25 ppm and the “Difference from 1.58 ppm (ppm) T6CH3” value turned out to be 0.157 ppm. In assay [2], the “Difference from 7.23 ppm (ppm) T6H6/8” value amounted to 0.126 ppm and the “Δδ (ppm)” value is reported as 0.25 ppm.

In assay [1] (Homo sapiens, HeLa, 24 h), `C(=N\CCCN1CCOCC1)/c1c2ccccc2c(/C=N/CCCN2CCOCC2)c2ccccc12` [Compound 2b] returned a concentration for half-maximal inhibition (IC50) of 24.4 µM. Also, in assay [2], the “Difference from 11.55 ppm (ppm) G3NH” value is given as −0.066 ppm, the “Difference from 11.22 ppm (ppm) G4NH” value is recorded as −0.135 ppm, the “Difference from 10.86 ppm (ppm) G5NH” value is given as −0.34 ppm and the “Difference from 1.58 ppm (ppm) T6CH3” value was found to be 0.093 ppm. In assay [2], the “Difference from 7.23 ppm (ppm) T6H6/8” value was found to be 0.22 ppm and the “Δδ (ppm)” value is reported as 0.34 ppm.

In the case of `COc1cccc2c1C(=O)c1c(O)c3c(c(O)c1C2=O)C[C@@](O)(C(=O)CO)C[C@@H]3O[C@H]1C[C@H](N2CCO[C@H](OC)C2)[C@H](O)[C@H](C)O1` [Nemorubicin], the “Δδ (ppm)” value in assay [3] is reported as 0.31 ppm.

These data come from PMC8152782, “Synthesis and evaluation of bis(imino)anthracene derivatives as G-quadruplex ligands” (RSC Medicinal Chemistry, 2021).
